In patent publication US20230330254A1 (Regeneron Pharmaceuticals, Inc., priority 2022, published 2023):
pEC50, pIC50: −log10 of the molar value. Read-outs that look alike come from different tables or passages of the source.

Columns and labels:
[1] = target: hERG potassium channels (Homo sapiens, UniProt Q12809); test: cell-based
Description: For the assay, CHO cells stably expressing hERG potassium channels were plated and cultured for at least 2 days in a humidified and air-controlled (5% CO2) incubator at 37° C. prior to use in electrophysiological experiments. Cells were then harvested using TrypLE and resuspended in physiological solution (10 mM HEPES, 80 mM NaCl, 4 mM KCl, 2 mM CaCl2, 1 mM MgCl2, 5 mM Glucose, 60 mM NM DG, pH 7.4). Test compounds were dissolved in water to obtain stock solutions for different test concentrations. […] One 40 μL addition of the vehicle was applied, followed by a 300s baseline recording period. […] Recordings were required to pass quality control over the duration of the recording or the well was abandoned, and the compound was retested, all automatically set by PatchControl. […] A minimum of 2 replicates per concentration were obtained. […] Curve-fitting and IC50 value calculations were performed by GraphPad Prism 5.0.

[2] = target: T1, human glucagon receptor (GCGR) (Homo sapiens, UniProt P47871); test: CRE-luciferase reporter assay, HEK293/Myc-hGCGR/Cre-Luc (Example 9); assay type: cell-based; details: Table 5C
T1 construct: full-length human GLP1R, cynomolgus GLP1R, human glucagon receptor (GCGR); expressed in transfected cells; host or cells: HEK293/CRE-Luc
Description: To test the activity of GLP1R agonist payloads and GLP1R agonist linker-payloads (LPs) in vitro, a cell-based cAMP responsive luciferase reporter assay was developed.
Cells were incubated overnight at 37° C. in 5% CO2. […] Plates were incubated for 5.5 h at 37° C. in 5% CO2. For end-point measurement, 100 μL/well of One-Glo reagent (Promega, #E6051) was added and plates were kept at room temperature for 5-10 minutes. Luciferase activity was measured on Envision Multilabel Plate Reader (Perkin Elmer) in Luminescent mode. The relative light units (RLU) values were obtained and the results were analyzed using nonlinear regression with GraphPad Prism software (GraphPad).

[3] = target: human GLP1R (Homo sapiens, UniProt P43220); test: b-arrestin 2 recruitment assay, PathHunter CHO/b-arrestin 2/hGLP1R cells; assay type: cell-based; details: read-out: CHO/b-arrestin 2/hGLP1R Emax (% GLP-1)
Description: The b-arrestin 2 recruitment assay was performed following manufacter's instructions (Eurofins DiscoverX, #93-0300E2CP0M), with minor modifications. […] Serial dilutions of free payload and LP were performed in 100% DMSO, followed by 1:100 dilution in assay media. Test articles were added to cells (1:5 dilution) with the last well in each serial dilution series serving as a blank control containing only assay media for antibodies and ATLs or assay media with 0.2% DMSO for payload and LP. After a 90-minute incubation at 37° C., PathHunter Detection Reagent (Eurofins DiscoverX, #93-0300E2CP0M) was added to the wells followed by a 1-hour incubation at room temperature. RLUs were measured on EnVision Plate Reader (Perkin Elmer).
EC50 values for luminescence assays were determined using a four-parameter logistic equation over a 12-point dose response curve (GraphPad Prism).

[4] = target: T2, human gastric inhibitory polypeptide receptor (GIPR) (Homo sapiens, UniProt P48546); test: Luciferase reporter assay, HEK293/CRE-Luc/hGIPR (Example 17); assay type: cell-based; design: expressed in transfected cells; host or cells: HEK293/CRE-Luc; details: Table 28; CRE-dependent luciferase reporter activity; read-out: HEK293/CRE-Luc/hGlPR EC50
T2 sequence (P48546 22-466): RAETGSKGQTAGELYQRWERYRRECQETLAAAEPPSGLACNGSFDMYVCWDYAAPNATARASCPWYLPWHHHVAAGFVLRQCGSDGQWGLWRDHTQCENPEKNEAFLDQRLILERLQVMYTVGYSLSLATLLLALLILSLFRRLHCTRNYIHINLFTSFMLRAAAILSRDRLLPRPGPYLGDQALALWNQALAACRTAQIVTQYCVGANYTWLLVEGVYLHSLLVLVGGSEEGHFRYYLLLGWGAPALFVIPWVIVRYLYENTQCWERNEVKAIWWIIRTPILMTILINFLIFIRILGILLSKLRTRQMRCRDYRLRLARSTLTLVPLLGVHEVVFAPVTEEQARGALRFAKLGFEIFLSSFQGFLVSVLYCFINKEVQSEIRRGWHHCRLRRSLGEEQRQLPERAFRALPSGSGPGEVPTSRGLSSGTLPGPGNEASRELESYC
From the text: To test the activity of GLP1R agonist payloads, GLP1R agonist linker-payloads (LPs), and anti-GLP1R antibody tethered drug conjugates (ATDCs) of the invention, a cell-based cAMP responsive luciferase reporter assay was developed. To generate the assay cell line, the firefly luciferase gene was placed under the control of a cAMP response element (CRE) located upstream of a minimal promoter and transfected into HEK293 cells and referred to herein as HEK293/CRE-Luc cells.
Three-fold serial dilutions of free payloads or LPs were prepared in 100% DMSO, transferred to fresh assay media, and added to the cells at a final constant DMSO concentration of 0.2%. The last well in the plate served as a blank control containing only the assay media and 0.2% DMSO (untreated well) and was plotted as a continuation of the 3-fold serial dilution. Four to six hours later, luciferase activity was determined after the addition of One-Glo™ reagent (Promega, Cat #E6130) to each well. Relative light units (RLUs) were measured on an Envision luminometer (PerkinElmer) and EC50 values were determined using a four-parameter logistic equation over a 12-point dose response curve (GraphPad Prism). The signal to noise (S/N) was determined by taking the ratio of the highest RLU on the dose response curve to the RLU in the untreated wells. […]

Sequence of hERG potassium channels (Q12809 whole entry): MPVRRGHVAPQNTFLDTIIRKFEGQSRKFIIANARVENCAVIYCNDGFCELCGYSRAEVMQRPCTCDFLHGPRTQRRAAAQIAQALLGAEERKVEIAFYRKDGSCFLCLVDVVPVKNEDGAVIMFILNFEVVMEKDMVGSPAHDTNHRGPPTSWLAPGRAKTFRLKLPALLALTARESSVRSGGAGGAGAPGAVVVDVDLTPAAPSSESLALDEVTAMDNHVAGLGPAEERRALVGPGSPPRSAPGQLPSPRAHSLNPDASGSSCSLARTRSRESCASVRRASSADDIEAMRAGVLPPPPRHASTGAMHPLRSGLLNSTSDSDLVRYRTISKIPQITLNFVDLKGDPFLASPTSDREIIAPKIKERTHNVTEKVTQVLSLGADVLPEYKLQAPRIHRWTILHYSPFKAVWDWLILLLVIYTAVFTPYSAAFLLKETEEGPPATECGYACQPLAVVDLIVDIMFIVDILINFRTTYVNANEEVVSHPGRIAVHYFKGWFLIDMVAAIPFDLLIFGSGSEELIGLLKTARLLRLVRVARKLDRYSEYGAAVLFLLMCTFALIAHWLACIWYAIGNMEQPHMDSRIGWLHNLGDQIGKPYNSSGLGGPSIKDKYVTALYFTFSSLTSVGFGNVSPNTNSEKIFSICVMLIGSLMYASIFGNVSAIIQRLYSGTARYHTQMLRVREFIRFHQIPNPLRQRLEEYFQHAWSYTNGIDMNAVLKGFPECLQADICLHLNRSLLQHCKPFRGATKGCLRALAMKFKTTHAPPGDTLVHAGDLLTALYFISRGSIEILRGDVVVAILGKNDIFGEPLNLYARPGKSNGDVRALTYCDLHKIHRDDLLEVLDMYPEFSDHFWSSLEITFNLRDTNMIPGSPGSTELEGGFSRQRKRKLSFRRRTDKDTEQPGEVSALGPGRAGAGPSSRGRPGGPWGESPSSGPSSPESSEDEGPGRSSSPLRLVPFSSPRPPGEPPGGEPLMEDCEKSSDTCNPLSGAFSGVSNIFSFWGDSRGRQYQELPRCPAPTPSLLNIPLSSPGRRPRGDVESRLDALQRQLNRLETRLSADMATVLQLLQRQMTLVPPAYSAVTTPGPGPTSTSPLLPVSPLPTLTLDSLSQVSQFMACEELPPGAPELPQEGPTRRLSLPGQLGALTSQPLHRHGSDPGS
T1 sequence (P47871 26-477): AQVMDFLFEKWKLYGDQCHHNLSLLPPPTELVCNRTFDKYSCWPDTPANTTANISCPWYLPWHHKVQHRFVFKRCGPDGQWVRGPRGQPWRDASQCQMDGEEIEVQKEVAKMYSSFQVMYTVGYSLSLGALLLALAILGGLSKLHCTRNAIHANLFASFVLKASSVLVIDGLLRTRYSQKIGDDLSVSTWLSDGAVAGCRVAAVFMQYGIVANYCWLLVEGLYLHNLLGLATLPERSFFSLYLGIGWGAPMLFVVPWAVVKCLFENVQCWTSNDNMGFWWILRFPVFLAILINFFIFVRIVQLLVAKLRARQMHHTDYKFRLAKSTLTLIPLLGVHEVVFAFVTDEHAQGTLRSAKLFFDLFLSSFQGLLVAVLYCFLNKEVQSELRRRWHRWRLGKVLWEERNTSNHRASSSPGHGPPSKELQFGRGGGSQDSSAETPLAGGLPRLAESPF
Sequence of human GLP1R (P43220 24-463): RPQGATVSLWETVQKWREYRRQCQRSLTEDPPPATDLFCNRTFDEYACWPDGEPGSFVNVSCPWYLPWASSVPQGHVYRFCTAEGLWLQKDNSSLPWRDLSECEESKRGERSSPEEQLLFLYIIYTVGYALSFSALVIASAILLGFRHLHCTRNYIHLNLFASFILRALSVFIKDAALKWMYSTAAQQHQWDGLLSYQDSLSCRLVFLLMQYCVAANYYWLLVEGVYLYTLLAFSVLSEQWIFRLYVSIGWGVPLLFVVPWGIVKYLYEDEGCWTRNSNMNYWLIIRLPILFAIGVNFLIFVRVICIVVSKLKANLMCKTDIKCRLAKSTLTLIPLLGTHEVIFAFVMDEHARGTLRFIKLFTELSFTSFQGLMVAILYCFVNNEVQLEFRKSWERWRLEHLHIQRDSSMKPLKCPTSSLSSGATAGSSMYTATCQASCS

Q: With `CCc1cc(OCCCCn2cc(COCCOCCOCCOCCOCCOCCOCCOCCN)nn2)ccc1-c1ccc(C[C@H](NC(=O)[C@H](CC(=O)O)NC(=O)[C@H](CO)NC(=O)[C@@H](NC(=O)C(C)(Cc2ccccc2F)NC(=O)[C@@H](NC(=O)CNC(=O)[C@H](Cc2nn[nH]n2)NC(=O)C(C)(C)C(=O)NCCc2cnc[nH]2)[C@@H](C)O)[C@@H](C)O)C(=O)N[C@@H](CCCc2cc(C)cc(C)c2)C(N)=O)cc1` (some centres unmarked) [LP11, NH2-PEG8-triazole-P8] as the molecule, how does the pIC50 [1] read?
A: < 4.00

Q: And the pIC50 ([1]; human, pH 7.4)?
A: < 4.00

Q: And the “GCGR EC50 (nM)” value [2]?
A: Completely inactive

Q: With `CCc1cc(OCCCCn2cc(COCCOCCOCCOCCOCCOCCOCCOCCN)nn2)ccc1-c1ccc(C[C@H](NC(=O)[C@H](CC(=O)O)NC(=O)[C@H](CO)NC(=O)[C@@H](NC(=O)[C@](C)(Cc2ccccc2F)NC(=O)[C@@H](NC(=O)CNC(=O)[C@H](Cc2nn[nH]n2)NC(=O)C(C)(C)C(=O)NCCc2cnc[nH]2)[C@@H](C)O)[C@@H](C)O)C(=O)N[C@@H](CCCc2cc(C)cc(C)c2)C(N)=O)cc1` [M3190] as the molecule, how does the Emax [3] read?
A: 108%

Q: What about the pEC50 [4] of the same molecule?
A: < 6.70
